According to US9789089B2 (Gilead Sciences, Inc., priority 2013, dated 2017):
Like-named read-outs stand apart in the source and are kept apart here.

Columns and labels:
[1] = Test B: Cytotoxicity assay; format: cell-based; settings: human, uninfected MT-4 cells, same protocol as Test A, CellTiter-Glo
Protocol: (§1) For the antiviral assay, 40 μL of 1× test concentration of 3-fold serially diluted compound in culture medium with 10% FBS was added to each well of a 384-well plate (10 concentrations) in quadruplicate. MT-4 cells were next mixed with HIV-IIIb at an m.o.i of 0.003 for 1 hour, after which time 35 μL of virus/cell mixture (2000 cells) was immediately added to each well containing 40 μL of diluted compound. The plates were then incubated at 37° C. for 5 days. After 5 days of incubation, 25 μl of 2× concentrated CellTiter-Glo™ Reagent (catalog #G7571, Promega Biosciences, Inc., Madison, Wis.) was added to each well containing MT-4 cells. Cell lysis was carried out by incubating at room temperature for 10 min and then chemiluminescence was read.
Test B:Cytotoxicity assay
Compound cytotoxicity and the corresponding CC50 values was determined using the same protocol as described in the antiviral assay (Test A) except that uninfected cells were used.

[2] = system: HIV-IIIb; experiment: Test A: Antiviral Assay in MT4 Cells; format: cell-based, HIV-1; settings: read-out: % inhibition at 6 μM
Protocol: Test A: Antiviral Assay in MT4 Cells
as §1

[3] = Human immunodeficiency virus 1, IIIB, MT4, 120 h
[4] = Human immunodeficiency virus 1, MT4, 120 h, percent inhibition of virus-induced cell killing at 6 μM drug concentration, from the dose response curve, MT-4 cells infected with HIV-IIIb, 5 days

Structure (SMILES) | CC50 at 5 days [1] | inhibition at 6 µM [2, 3] | inhibition at 6 µM [2, 4]
O=C(Cn1nc(C(F)(F)F)c2c1CCCC2)N[C@@H](Cc1ccccc1)c1nccn1-c1ccccc1 [Compound 1E, (S)—N-(2-phenyl-1-(1-phenyl-1H-imidazol-2-yl)ethyl)-2-(3-(trifluoromethyl)-4,5,6,7-tetrahydro-1H-indazol-1-yl)acetamide] | 21.9 µM | 83% | 
CC(C)CCn1ccnc1[C@H](Cc1ccccc1)NC(=O)Cn1nc(C(F)(F)F)c2c1CCCC2 [Compound 2, (S)—N-(1-(1-isopentyl-1H-imidazol-2-yl)-2-phenylethyl)-2-(3-(trifluoromethyl)-4,5,6,7-tetrahydro-1H-indazol-1-yl)acetamide] | 27.8 µM |  | 6%
COc1ccccc1Cn1ccnc1[C@H](Cc1ccccc1)NC(=O)Cc1c[nH]c2ccc(O)cc12 [Compound 3C, (S)-2-(5-hydroxy-1H-indol-3-yl)-N-(1-(1-(2-methoxybenzyl)-1H-imidazol-2-yl)-2-phenylethyl)acetamide] | 37.1 µM | 19% | 
COc1ccc(-n2ccnc2[C@H](Cc2cc(F)cc(F)c2)NC(=O)Cn2nc(C(F)(F)F)c3c2CCCC3)cc1 [Compound 5F, (S)—N-(2-(3,5-difluorophenyl)-1-(1-(4-methoxyphenyl)-1H-imidazol-2-yl)ethyl)-2-(3-(trifluoromethyl)-4,5,6,7-tetrahydro-1H-indazol-1-yl)acetamide] | 13.5 µM | 79% | 
COc1ccc(-n2ccnc2[C@@H](Cc2cc(F)cc(F)c2)NC(=O)Cn2nc(C(F)(F)F)c3c2CCCC3)cc1 [Compound 6B, (R)—N-(2-(3,5-difluorophenyl)-1-(1-(4-methoxyphenyl)-1H-imidazol-2-yl)ethyl)-2-(3-(trifluoromethyl)-4,5,6,7-tetrahydro-1H-indazol-1-yl)acetamide] | 12 µM | 4% | 
COc1ccc(-n2ccnc2[C@H](Cc2cc(F)cc(F)c2)NC(=O)Cc2c[nH]c3ccc(O)cc23)cc1 [Compound 7, (S)—N-(2-(3,5-difluorophenyl)-1-(1-(4-methoxyphenyl)-1H-imidazol-2-yl)ethyl)-2-(5-hydroxy-1H-indol-3-yl)acetamide] |  | 121% | 
COc1ccc(-n2ccnc2[C@@H](Cc2cc(F)cc(F)c2)NC(=O)Cc2c[nH]c3ccc(O)cc23)cc1 [Compound 8, (R)—N-(2-(3,5-difluorophenyl)-1-(1-(4-methoxyphenyl)-1H-imidazol-2-yl)ethyl)-2-(5-hydroxy-1H-indol-3-yl)acetamide] |  | 6% | 
O=C(Cn1nc(C(F)(F)F)c2c1CCCC2)NC(Cc1ccccc1)c1cnnn1-c1ccccc1 (centres unmarked) [Compound 9E, N-(2-phenyl-1-(1-phenyl-1H-1,2,3-triazol-5-yl)ethyl)-2-(3-(trifluoromethyl)-4,5,6,7-tetrahydro-1H-indazol-1-yl)acetamide] | 13.2 µM | 0% | 
Cc1nnc(C(Cc2ccccc2)NC(=O)Cc2c[nH]c3ccc(O)cc23)n1-c1ccccc1 (centres unmarked) [Compound 10G, 2-(5-hydroxy-1H-indol-3-yl)-N-(1-(5-methyl-4-phenyl-4H-1,2,4-triazol-3-yl)-2-phenylethyl)acetamide] | > 53.2 µM |  | 51%
Cc1nnc(C(Cc2ccccc2)NC(=O)Cn2nc(C(F)(F)F)c3c2CCCC3)n1-c1ccccc1 (centres unmarked) [Compound 11, N-(1-(5-methyl-4-phenyl-4H-1,2,4-triazol-3-yl)-2-phenylethyl)-2-(3-(trifluoromethyl)-4,5,6,7-tetrahydro-1H-indazol-1-yl)acetamide] | > 53 µM |  | 76%
O=C(Cc1c[nH]c2ccc(O)cc12)NC(Cc1ccccc1)c1cnnn1-c1ccccc1 (centres unmarked) [Compound 12, 2-(5-hydroxy-1H-indol-3-yl)-N-(2-phenyl-1-(1-phenyl-1H-1,2,3-triazol-5-yl)ethyl)acetamide] | > 53 µM |  | 4%
Cc1ccccc1-c1scnc1C(Cc1cc(F)cc(F)c1)NC(=O)Cc1c[nH]c2ccc(O)cc12 (centres unmarked) [Compound 13E, N-(2-(3,5-difluorophenyl)-1-(5-(o-tolyl)thiazol-4-yl)ethyl)-2-(5-hydroxy-1H-indol-3-yl)acetamide] |  | 93% | 
Cc1ccccc1-c1scnc1C(Cc1cc(F)cc(F)c1)NC(=O)Cn1nc(C(F)(F)F)c2c1CCCC2 (centres unmarked) [Compound 14, N-(2-(3,5-difluorophenyl)-1-(5-(o-tolyl)thiazol-4-yl)ethyl)-2-(3-(trifluoromethyl)-4,5,6,7-tetrahydro-1H-indazol-1-yl)acetamide] | 11.3 µM |  | 60%
Cc1nc(-c2ccccc2)c(C(Cc2ccccc2)NC(=O)Cc2c[nH]c3ccc(O)cc23)s1 (centres unmarked) [Compound 15C, 2-(5-hydroxy-1H-indol-3-yl)-N-(1-(2-methyl-4-phenylthiazol-5-yl)-2-phenylethyl)acetamide] | 35 µM |  | 0%
Cc1nc(-c2ccccc2)c([C@H](Cc2ccccc2)NC(=O)Cn2nc(C(F)(F)F)c3c2CCCC3)s1 [Compound 16, (S)—N-(1-(2-methyl-4-phenylthiazol-5-yl)-2-phenylethyl)-2-(3-(trifluoromethyl)-4,5,6,7-tetrahydro-1H-indazol-1-yl)acetamide] | 51.9 µM |  | 0%
O=C(Cc1c[nH]c2ccc(F)cc12)N[C@@H](Cc1cc(F)cc(F)c1)c1nnc(-c2ccccc2)o1 [Compound 17B, (S)—N-(2-(3,5-difluorophenyl)-1-(5-phenyl-1,3,4-oxadiazol-2-yl)ethyl)-2-(5-fluoro-1H-indol-3-yl)acetamide] | > 53 µM | 0% | 
O=C(Cc1c[nH]c2ccc(F)cc12)N[C@@H](Cc1ccccc1)c1nc(-c2ccccc2)no1 [Compound 18B, (S)-2-(5-fluoro-1H-indol-3-yl)-N-(2-phenyl-1-(3-phenyl-1,2,4-oxadiazol-5-yl)ethyl)acetamide] | > 53 µM | 4% | 
O=C(Cc1c[nH]c2ccc(F)cc12)NC(Cc1cc(F)cc(F)c1)c1cnc(-c2ccc(Cl)cc2)o1 (centres unmarked) [Compound 19F, N-(1-(2-(4-chlorophenyl)oxazol-5-yl)-2-(3,5-difluorophenyl)ethyl)-2-(5-fluoro-1H-indol-3-yl)acetamide] | 9.14 µM |  | 0%
O=C(Cn1nc(C(F)(F)F)c2c1CCCC2)NC(Cc1cc(F)cc(F)c1)c1cnc(-c2ccc(Cl)cc2)o1 (centres unmarked) [Compound 20, N-(1-(2-(4-chlorophenyl)oxazol-5-yl)-2-(3,5-difluorophenyl)ethyl)-2-(3-(trifluoromethyl)-4,5,6,7-tetrahydro-1H-indazol-1-yl)acetamide] | 12.2 µM | 1% | 
COc1ccc2[nH]cc(CC(=O)NC(Cc3cc(F)cc(F)c3)c3cnc(-c4ccc(Cl)cc4)o3)c2n1 (centres unmarked) [Compound 21, N-(1-(2-(4-chlorophenyl)oxazol-5-yl)-2-(3,5-difluorophenyl)ethyl)-2-(5-methoxy-1H-pyrrolo[3,2-b]pyridin-3-yl)acetamide] | 25.4 µM |  | 2%
O=C(Cc1c[nH]c2ccc(O)nc12)NC(Cc1cc(F)cc(F)c1)c1cnc(-c2ccc(Cl)cc2)o1 (centres unmarked) [Compound 22, N-(1-(2-(4-chlorophenyl)oxazol-5-yl)-2-(3,5-difluorophenyl)ethyl)-2-(5-hydroxy-1H-pyrrolo[3,2-b]pyridin-3-yl)acetamide] | 50.7 µM |  | 1%
Cc1cc2ncn(CC(=O)NC(Cc3cc(F)cc(F)c3)c3cnc(-c4ccc(Cl)cc4)o3)c2cc1C (centres unmarked) [Compound 23, N-(1-(2-(4-chlorophenyl)oxazol-5-yl)-2-(3,5-difluorophenyl)ethyl)-2-(5,6-dimethyl-1H-benzo[d]imidazol-1-yl)acetamide] | 12 µM | 0% | 
O=C(Cc1c[nH]c2ccc(O)cc12)NC(Cc1cc(F)cc(F)c1)c1cnc(-c2ccc(Cl)cc2)o1 (centres unmarked) [Compound 24, N-(1-(2-(4-chlorophenyl)oxazol-5-yl)-2-(3,5-difluorophenyl)ethyl)-2-(5-hydroxy-1H-indol-3-yl)acetamide] | 13.6 µM |  | 5%
O=C(Cc1c[nH]c2ccc(O)cc12)N[C@@H](Cc1cc(F)cc(F)c1)c1nocc1-c1ccc(Cl)cc1 [Compound 26, (S)—N-(1-(4-(4-chlorophenyl)isoxazol-3-yl)-2-(3,5-difluorophenyl)ethyl)-2-(5-hydroxy-1H-indol-3-yl)acetamide] |  | 106% | 
O=C(Cc1c[nH]c2ccc(O)cc12)N[C@H](Cc1cc(F)cc(F)c1)c1nocc1-c1ccc(Cl)cc1 [Compound 28B, (R)—N-(1-(4-(4-chlorophenyl)isoxazol-3-yl)-2-(3,5-difluorophenyl)ethyl)-2-(5-hydroxy-1H-indol-3-yl)acetamide] |  | 3% | 
Cn1cnc(C(Cc2cc(F)cc(F)c2)NC(=O)Cc2c[nH]c3ccc(O)cc23)c1-c1ccc(Cl)cc1 (centres unmarked) [Compound 31, N-(1-(5-(4-chlorophenyl)-1-methyl-1H-imidazol-4-yl)-2-(3,5-difluorophenyl)ethyl)-2-(5-hydroxy-1H-indol-3-yl)acetamide] |  | 75% | 
Cc1cc2ncn(CC(=O)NC(Cc3cc(F)cc(F)c3)c3ncoc3-c3ccc(Cl)cc3)c2cc1C (centres unmarked) [Compound 33H, N-(1-(5-(4-chlorophenyl)oxazol-4-yl)-2-(3,5-difluorophenyl)ethyl)-2-(5,6-dimethyl-1H-benzo[d]imidazol-1-yl)acetamide] | 31.8 µM |  | 
